# Patent US20240270741A1 (Cogent Biosciences, Inc., priority 2023, published 2024)
# Target: FGFR2 (Homo sapiens, UniProt P21802)
# Experiment: FGFR wild type enzyme assay (HTRF KinEASE-TK), FGFR2
# Settings: Enz FGFR2 (nM), FGFR2 wild type enzyme
# Chain of FGFR2 (P21802 399-821 limits assumed): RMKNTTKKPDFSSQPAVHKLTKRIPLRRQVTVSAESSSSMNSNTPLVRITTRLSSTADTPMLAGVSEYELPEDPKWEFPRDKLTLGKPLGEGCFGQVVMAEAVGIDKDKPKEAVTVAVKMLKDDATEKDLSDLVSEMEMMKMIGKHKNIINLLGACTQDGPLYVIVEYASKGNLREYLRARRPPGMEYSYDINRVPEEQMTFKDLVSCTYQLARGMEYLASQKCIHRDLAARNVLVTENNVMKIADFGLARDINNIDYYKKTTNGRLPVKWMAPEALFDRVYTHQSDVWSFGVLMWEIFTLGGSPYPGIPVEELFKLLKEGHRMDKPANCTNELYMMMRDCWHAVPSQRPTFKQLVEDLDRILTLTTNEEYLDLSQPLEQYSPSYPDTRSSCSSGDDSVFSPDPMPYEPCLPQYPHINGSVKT
row,IC50,Structure (SMILES)
1,1.6 nM,"Cc1c(-c2cc(Sc3ncccc3F)c3c(C#N)cnn3c2)cnn1C1CCN(C(=O)C(C)(C)N(C)C)CC1 [Example 213, 6-(1-(1-(2-(dimethylamino)-2-methylpropanoyl)piperidin-4-yl)-5-methyl-1H-pyrazol-4-yl)-4-((3-fluoropyridin-2-yl)thio)pyrazolo[1,5-a]pyridine-3-carbonitrile]"
2,1.6 nM,"Cc1c(-c2cc(Sc3ncccc3F)c3c(C#N)cnn3c2)cnn1C1CCN(C(=O)[C@@H](C)N(C)C)CC1 [Example 214, 6-(1-(1-(dimethyl-D-alanyl)piperidin-4-yl)-5-methyl-1H-pyrazol-4-yl)-4-((3-fluoropyridin-2-yl)thio)pyrazolo[1,5-a]pyridine-3-carbonitrile]"
3,1.6 nM,"Cc1c(-c2cc(Sc3ncccc3F)c3c(C#N)cnn3c2)cnn1C1CCN(C(=O)[C@H](C)N(C)C)CC1 [Example 215, 6-(1-(1-(dimethyl-L-alanyl)piperidin-4-yl)-5-methyl-1H-pyrazol-4-yl)-4-((3-fluoropyridin-2-yl)thio)pyrazolo[1,5-a]pyridine-3-carbonitrile]"
4,2 nM,"Cc1c(-c2cc(Sc3ncccc3F)c3c(C#N)cnn3c2)cnn1C1CCN(Cc2ncccn2)CC1 [Example 216, 4-((3-fluoropyridin-2-yl)thio)-6-(5-methyl-1-(1-(pyrimidin-2-ylmethyl)piperidin-4-yl)-1H-pyrazol-4-yl)pyrazolo[1,5-a]pyridine-3-carbonitrile]"
5,6 nM,"Cc1c(-c2cc(Sc3ncccc3F)c3c(C#N)cnn3c2)cnn1CC1CCN(CC(=O)N(C)C)CC1 [Example 217, 2-(4-((4-(3-cyano-4-((3-fluoropyridin-2-yl)thio)pyrazolo[1,5-a]pyridin-6-yl)-5-methyl-1H-pyrazol-1-yl)methyl)piperidin-1-yl)-N,N-dimethylacetamide]"
6,3 nM,"Cc1c(-c2cc(Sc3ncccc3F)c3c(C#N)cnn3c2)cnn1[C@H](C)C1CCNCC1 [Example 218, (R)-4-((3-fluoropyridin-2-yl)thio)-6-(5-methyl-1-(1-(piperidin-4-yl)ethyl)-1H-pyrazol-4-yl)pyrazolo[1,5-a]pyridine-3-carbonitrile]"
7,0.5 nM,"Cc1c(-c2cc(Sc3ncccc3F)c3c(C#N)cnn3c2)cnn1[C@H]1CC[C@]2(CCNC2)CC1 [Example 219, 4-((3-fluoropyridin-2-yl)thio)-6-(5-methyl-1-((5s,8s)-2-azaspiro[3.4]decan-8-yl)-1H-pyrazol-4-yl)pyrazolo[1,5-a]pyridine-3-carbonitrile]"
8,5 nM,"CC(=O)N[C@H]1CC[C@@H](n2ncc(-c3cc(Sc4ncccc4F)c4c(C#N)cnn4c3)c2C)CC1 [Example 220, N-((1s,4S)-4-(4-(3-cyano-4-((3-fluoropyridin-2-yl)thio)pyrazolo[1,5-a]pyridin-6-yl)-5-methyl-1H-pyrazol-1-yl)cyclohexyl)acetamide]"
9,1 nM,"CC(=O)N1CCC(Cn2ncc(-c3cc(Sc4ccccc4C#N)c4c(C#N)cnn4c3)c2C)CC1 [Example 221, 6-(1-((1-acetylpiperidin-4-yl)methyl)-5-methyl-1H-pyrazol-4-yl)-4-((2-cyanophenyl)thio)pyrazolo [1,5-a]pyridin-3-carbonitrile]"
10,5 nM,"Cc1c(-c2cc(Sc3ncccc3F)c3c(C#N)cnn3c2)cnn1CC1CCNCC1 [Example 222, 4-((3-fluoropyridin-2-yl)thio)-6-(5-methyl-1-(piperidin-4-ylmethyl)-1H-pyrazol-4-yl)pyrazolo[1,5-a]pyridine-3-carbonitrile]"
11,8 nM,Cc1c(-c2cc(Sc3ncccc3F)c3c(C#N)cnn3c2)cnn1[C@@H]1CCNC[C@H]1F [Example 223]
12,8 nM,"CC(=O)N1CCC[C@@H](Cn2ncc(-c3cc(Sc4ccccc4C#N)c4c(C#N)cnn4c3)c2C)C1 [Example 224, (R)-6-(1-((1-acetylpiperidin-3-yl)methyl)-5-methyl-1H-pyrazol-4-yl)-4-((2-cyanophenyl)thio)pyrazolo [1,5-a]pyridine-3-carbonitrile]"
13,1 nM,"CC(=O)N1CC[C@]2(CC[C@@H](n3ncc(-c4cc(Sc5ncccc5F)c5c(C#N)cnn5c4)c3C)CC2)C1 [Example 225, 6-(1-((5r,8r)-2-acetyl-2-azaspiro[4.5]decan-8-yl)-5-methyl-1H-pyrazol-4-y)-4-((3-fluoropyridin-2-yl)thio)pyrazolo[1,5-a]pyridine-3-carbonitrile]"
14,1 nM,"Cc1c(-c2cc(Sc3ncccc3F)c3c(C#N)cnn3c2)cnn1[C@@H]1C[C@H]2CNC[C@H]2C1 [Example 226, 4-((3-fluoropyridin-2-yl)thio)-6-(5-methyl-1-((3sR,5s,6aS)-octahydrocyclopenta[c]pyr-rol-5-yl)-1H-pyrazol-4-yl)pyrazolo[1,5-a]pyridine-3-carbonitrile]"
15,1 nM,"CC(=O)N1CC[C@]2(CC[C@H](n3ncc(-c4cc(Sc5ncccc5F)c5c(C#N)cnn5c4)c3C)CC2)C1 [Example 227, 6-(1-((5s,8s)-2-acetyl-2-azaspiro[4.5]decan-8-yl)-5-methyl-1H-pyrazol-4-yl)-4-((3-fluoropyridin-2-yl)thio)pyrazolo[1,5-a]pyridine-3-carbonitrile]"
16,1 nM,"Cc1c(-c2cc(Sc3ncccc3F)c3c(C#N)cnn3c2)cnn1[C@H]1CC[C@@H](NC(=O)CO)CC1 [Example 228, N-((1s,4s)-4-(4-(3-cyano-4-((3-fluoropyridin-2-yl)thio)pyrazolo[1,5-a]pyridin-6-yl)-5-methyl-1H-pyrazol-1-yl)cyclohexyl)-2-hydroxyacetamide]"
17,3 nM,"Cc1c(-c2cc(Sc3ncc(F)cc3F)c3c(C#N)cnn3c2)cnn1[C@H]1CCCN(C(=O)CO)C1 [Example 229, (S)-4-((3,5-difluoropyridin-2-yl)thio)-6-(1-(1-(2-hydroxyacetyl)piperidin-3-yl)-5-methyl-1H-pyrazol-4-yl)pyrazolo[1,5-a]pyridine-3-carbonitrile]"
18,1 nM,"Cc1c(-c2cc(Sc3ccc(F)cc3C#N)c3c(C#N)cnn3c2)cnn1C1CCN(C)CC1 [Example 230, 4-((2-cyano-4-fluorophenyl)thio)-6-(5-methyl-1-(1-methylpiperidin-4-yl)-1H-pyrazol-4-yl)pyrazolo[1,5-a]pyridine-3-carbonitrile]"
19,1 nM,"CC(=O)N(C)[C@H]1CC[C@@H](n2ncc(-c3cc(Sc4ccccc4C#N)c4c(C#N)cnn4c3)c2C)CC1 [Example 231, N-((1s,4s)-4-(4-(3-cyano-4-((2-cyanophenyl)thio)pyrazolo [1,5-a]pyridin-6-yl)-5-methyl-1H-pyrazol-1-yl)cyclohexyl)-N-methylacetamide]"
20,3.5 nM,"Cc1c(-c2cc(Sc3ccccc3C#N)c3c(C#N)cnn3c2)cnn1C[C@@H]1CNCCO1 [Example 232, (S)-4-((2-cyanophenyl)thio)-6-(5-methyl-1-(morpholin-2-ylmethyl)-1H-pyrazol-4-yl)pyrazolo[1,5-a]pyridine-3-carbonitrile]"
21,6 nM,"Cc1c(-c2cc(Sc3ncccc3F)c3c(C#N)cnn3c2)cnn1C[C@@H]1CNCCO1 [Example 233, (S)-4-((3-fluoropyridin-2-yl)thio)-6-(5-methyl-1-(morpholin-2-ylmethyl)-1H-pyrazol-4-yl)pyrazolo[1,5-a]pyridine-3-carbonitrile]"
